# In patent publication US20230107770A1, “METHOD OF ENHANCING IMMUNOTHERAPY USING ER STRESS PATHWAY INHIBITORS” (H. LEE MOFFITT CANCER CENTER AND RESEARCH INSTITUTE, INC., priority 2020, published 2023):
# “Also recorded” adds a separate entry of the source.
# Key:
# [1] = tested on: FSHR+-ID8-Defb29/Vegfa ovarian tumors; assay: ER stress-targeting therapy combined with FSH-CER T cells in ovarian tumor-bearing mice; format: in vivo; settings: MKC8866 i.p. 300 mg/kg or AMG-44 i.p. 12 mg/kg daily for one week; FSH-CER T cells days 7 and 14
# Description: The role of the PERK-Chop in the expansion of tumor TRM cells using conditional T cell Chop-null mice was evaluated. In agreement with the inhibitory effect of Chop in TRM development, higher frequency of TRM cells was detected in tumors from T cell-Chop^KO mice compared to controls (FIG. 23A). Next, we tested the effect of the inhibition of PERK (AMG-44) and IRE 1α (MKC8866) during the expansion of IL-2-supplemented human FSH-CER T cells. […] Also, we evaluated the therapeutic effect of the combination of ER stress-targeting therapy and FSH-CER. […]
# Activation of the UPR in cancer cells mediates adaptation processes in the TME, whereas UPR priming in tumor-myeloid cells promotes their immunoregulatory activity. […] As main readouts of therapeutic efficacy, we will monitor tumor burden, overall survival, and tumor CER-T cell infiltration, persistence, and cytotoxic capacity (Exp. C.2.1.1). […] Additionally, we will sort DCs and MDSC from tumor sites and lymphoid organs to quantify the expression of ER stress gene markers, their ability to impair T cell proliferation and IFNγ production, and the levels of the UPR-related immunoinhibitory factors IL-6, PGE2, Cox-2, mPGES-1, and Arginase I. All required methods are established by our groups. […]
# human FSH-CER T cells = assay: Expansion of IL-2-supplemented human FSH-CER T cells with ER stress inhibitors; format: cell-based; settings: treatment for 5 days
# Description: The role of the PERK-Chop in the expansion of tumor TRM cells using conditional T cell Chop-null mice was evaluated. In agreement with the inhibitory effect of Chop in TRM development, higher frequency of TRM cells was detected in tumors from T cell-Chop^KO mice compared to controls (FIG. 23A). Next, we tested the effect of the inhibition of PERK (AMG-44) and IRE 1α (MKC8866) during the expansion of IL-2-supplemented human FSH-CER T cells. […] Also, we evaluated the therapeutic effect of the combination of ER stress-targeting therapy and FSH-CER. Thus, mice bearing FSHR+-ID8-Defb29/Vegfa ovarian tumors for 7 days received daily treatments with MKC8866 (i.p., 300 mg/kg) or AMG-44 (i.p. 12 mg/kg) for one-week, and i.p. transfer of FSH-CER T cells at days 7 and 14 post-tumor challenge. […] We postulate that treatments for longer time periods with ER stress inhibitors will further potentiate the effect of FSH-CER T cells
# ID8-Defb29/Vegfa tumors = assay: Orthotopic ID8-Defb29/Vegfa ovarian tumor model treated with MKC8866; format: in vivo, mice
# Source text: (§1) FIGS. 19A, 19B, 19C, 19D, 19E, and 19F show Inhibition of IRE1α-XBP1 blunts tumor growth and activates effector T cell activity in tumors. […] Pictures denote the content of hemorrhagic ascites. […] FIGS. 19D, 19E, and 19F show the frequency of T cell populations in peritoneal tumors from ID8-Defb29/Vegfa-bearing mice treated with MKC8866 for two weeks. ***P<0.0001, **P<0.001 (Student's t-test). N=two repeats with a total of 8-10 mice per group.
# (§2) We optimized a therapeutic scheme wherein female mice bearing orthotropic ID8-Defb29/Vegfa tumors for 7 days were treated daily for two weeks with vehicle or MKC8866, a novel small-molecule inhibitor that selectively blocks the RNase domain of IRE1α, impeding the generation of XBP1s.
# [2] = tested on: IRE1α-generated Xbp1s mRNA; assay: Xbp1s mRNA in peritoneal leukocytes of ID8-Defb29/Vegfa-bearing mice; format: in vivo; settings: MKC8866 300 mg/kg; leukocytes isolated 12 h later
# Source text: as §1, §2
structure (smiles),measurement,setting,value
COc1cc2c(C)c(CC(=O)N3CCOCC3)c(=O)oc2c(C=O)c1O [MKC8866],survival of hosts receiving FSH-CER T cells plus inhibitor,[1],Prolonged survival
same,frequency of FSH-CER TRM cells,human FSH-CER T cells,Higher frequency of FSH-CER TRM cells
same,PD-1 in intra-tumoral CD8+ T cells,ID8-Defb29/Vegfa tumors; MKC8866-treated mice vs vehicle,upregulation of PD-1; also recorded: substantial elevation of the immune checkpoint PD-1
same,generation of hemorrhagic ascites,ID8-Defb29/Vegfa tumors; MKC8866 daily for two weeks vs vehicle,impaired generation of hemorrhagic ascites
same,malignant progression,"ID8-Defb29/Vegfa tumors; MKC8866 daily for two weeks vs vehicle, weight gain",delayed malignant progression
same,capacity of intra-tumoral CD8+ T cells to produce IFNγ and TNFα in situ,ID8-Defb29/Vegfa tumors; MKC8866 for two weeks,augmenting their capacity to produce both IFNγ and TNFα in situ
same,proportion of proliferating (Ki67+) antigen-experienced (CD44+) CD8+ T cells infiltrating tumors,ID8-Defb29/Vegfa tumors; MKC8866 for two weeks,increased the proportion
same,levels of IRE1α-generated Xbp1s mRNA in peritoneal leukocytes,[2],rapidly and significantly decreased
